Data as given in patent US12421212B2, “Substituted benzenecarboxamides as IL-17A modulators” (DiCE Alpha, Inc., priority 2019, dated 2025).

Molecular target: T1, IL-17A/A (Homo sapiens, UniProt Q16552)
T1 construct: purchased Genscript Z03228
T1 sequence (Q16552 24-155): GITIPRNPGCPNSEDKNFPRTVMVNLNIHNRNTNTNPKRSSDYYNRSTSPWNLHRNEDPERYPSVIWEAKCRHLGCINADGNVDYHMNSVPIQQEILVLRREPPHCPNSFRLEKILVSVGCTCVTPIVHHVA
Assay: IL-17A/A HEK-Blue Cell Assay
Format: cell-based
Conditions: HEK-Blue IL-17A reporter cell line, SEAP readout at A630, 20 hours incubation with IL-17A/A; top concentration 10 uM, 1 uM or 0.3 uM
Experimental: The HEK-Blue IL-17A reporter cell line (Fisher #NC1408637) was used for cell-based IL-17A/A inhibition assays. Cells were grown and prepared for assays according to the manufacturer's instructions. This cell line consists of HEK 293 cells that were designed to expressed IL-17RA, IL-17RC, and the ActI adapter molecule, the combination of which, when stimulated by IL-17A/A activates a NFκB promoter and drives expression of a recombinant Secreted Alkaline Phosphatase (SEAP) geneprotein. Media from the cells is then added to a development reagent (Quanti-Blue Substrate, Fisher #NC9711613), and read at A630.
Compounds were titrated in DMSO, with a top final compound concentration of 10 uM, 1 uM, or 0.3 uM, and added to the cells immediately before adding IL-17A/A (Genscript #Z03228). The cells, compound, and IL-17A/A were then incubated for 20 hours before media was removed for SEAP analysis. The resulting inhibition curve was then analyzed using Graphpad Prism 7.0, and IC50 values were determined using a 4-parameter nonlinear fit. DMSO was added to a universal final concentration of 0.1% to optimize background.

Structure (SMILES)	IL-17A/A inhibition (pIC50)
CCC(=O)N[C@@H](C(=O)N1CCN(C)CC1)[C@@H](C)c1ccc(NC(=O)C(NC(=O)c2ccnn2CC)C(CC)c2ccc(F)cc2)c(F)c1 (single isomer, unassigned) [Compound 553]	X2a (compounds were evaluated up to 1 uM and did not inhibit activity by >80%, however they showed some activity at 1 uM (less than 80% and more than 20%))
CCC(=O)N[C@@H](C(=O)N1CCN(C)CC1)[C@@H](C)c1ccc(NC(=O)C(NC(=O)c2ccnn2CC)C(CC)c2ccc(F)cc2)c(F)c1 (single isomer, unassigned) [Compound 556]	X2a (compounds were evaluated up to 1 uM and did not inhibit activity by >80%, however they showed some activity at 1 uM (less than 80% and more than 20%))
CCC(=O)N[C@@H](C(=O)N1CCN(C)CC1)[C@@H](C)c1ccc(NC(=O)C(NC(=O)c2nonc2CC)C(CC)c2ccc(F)cc2)c(F)c1 (single isomer, unassigned) [Compound 559]	X2b (compounds were evaluated up to 1 uM and inhibited activity at 1 uM by less than 20%)
CCC(=O)N[C@@H](C(=O)N1CCN(C)CC1)[C@@H](C)c1ccc(NC(=O)C(NC(=O)c2ccnn2CC)C(CC)c2ccc(Cl)cc2)c(F)c1 (single isomer, unassigned) [Compound 560]	X2b (compounds were evaluated up to 1 uM and inhibited activity at 1 uM by less than 20%)
CCC(=O)N[C@@H](C(=O)N1CCN(C)CC1)[C@@H](C)c1ccc(NC(=O)C(NC(=O)c2ccnn2CC)C(CC)c2ccc(Cl)cc2)c(F)c1 (single isomer, unassigned) [Compound 563]	X2b (compounds were evaluated up to 1 uM and inhibited activity at 1 uM by less than 20%)
CCC(=O)N[C@@H](C(=O)N1CCN(C)CC1)[C@@H](C)c1ccc(NC(=O)C(NC(=O)c2nonc2CC)C(CC)c2ccc(Cl)cc2)c(F)c1 (single isomer, unassigned) [Compound 564]	X2a (compounds were evaluated up to 1 uM and did not inhibit activity by >80%, however they showed some activity at 1 uM (less than 80% and more than 20%))
CCC(=O)N[C@@H](C(=O)N1CCN(C)CC1)[C@@H](C)c1ccc(NC(=O)C(NC(=O)c2ccnn2CC)C2CCc3cc(F)ccc32)c(F)c1 (single isomer, unassigned) [Compound 571]	X2a (compounds were evaluated up to 1 uM and did not inhibit activity by >80%, however they showed some activity at 1 uM (less than 80% and more than 20%))
CCC(=O)N[C@@H](C(=O)N1CCN(C)CC1)[C@@H](C)c1ccc(NC(=O)C(NC(=O)c2nonc2CC)C(C)C2CCC(C)CC2)c(F)c1 (single isomer, unassigned) [Compound 584]	X2b (compounds were evaluated up to 1 uM and inhibited activity at 1 uM by less than 20%)
CCC(=O)N[C@@H](C(=O)N1CCN(C)CC1)[C@@H](C)c1ccc(NC(=O)C(NC(=O)c2ccnn2CC)C(C)C2CCC(C)CC2)c(F)c1 (single isomer, unassigned) [Compound 585]	X2a (compounds were evaluated up to 1 uM and did not inhibit activity by >80%, however they showed some activity at 1 uM (less than 80% and more than 20%))
CCC(=O)N[C@@H](C(=O)N1CCN(C)CC1)[C@@H](C)c1ccc(NC(=O)C(NC(=O)c2nonc2CC)C(C)C2CCC(F)(F)CC2)c(F)c1 (single isomer, unassigned) [Compound 588]	X3b (compounds were evaluated up to 0.3 uM and inhibited activity at 0.3 uM by less than 20%)
CCC(=O)N[C@@H](C(=O)N1CCN(C)CC1)[C@@H](C)c1ccc(NC(=O)C(NC(=O)c2ccnn2CC)C(C)C2CCC(F)(F)CC2)c(F)c1 (single isomer, unassigned) [Compound 589]	X3b (compounds were evaluated up to 0.3 uM and inhibited activity at 0.3 uM by less than 20%)
CCC(=O)N[C@@H](C(=O)N1CCN(C)CC1)[C@@H](C)c1ccc(NC(=O)C(NC(=O)c2nonc2CC)C(C)C2CCC(F)(F)CC2)c(F)c1 (single isomer, unassigned) [Compound 590]	X3b (compounds were evaluated up to 0.3 uM and inhibited activity at 0.3 uM by less than 20%)
CCC(=O)N[C@@H](C(=O)N1CCN(C)CC1)[C@@H](C)c1ccc(NC(=O)C(NC(=O)c2ccnn2CC)C(C)C2CCC(F)(F)CC2)c(F)c1 (single isomer, unassigned) [Compound 591]	X3b (compounds were evaluated up to 0.3 uM and inhibited activity at 0.3 uM by less than 20%)

Same assay, conditions: HEK-Blue IL-17A reporter cell line, SEAP readout at A630, 20 hours incubation with IL-17A/A; top concentration 10 uM, 1 uM or 0.3 uM; read-out: IL-17A/A inhibition (pIC50) (converted)

Structure (SMILES)	IC50 [µM]
CCC(=O)N[C@@H](C(=O)N1CCN(C)CC1)[C@@H](C)c1ccc(NC(=O)C(NC(=O)c2ccnn2CC)C(C)c2ccc(C)cc2)c(F)c1 (single isomer, unassigned) [Compound 294]	0.01 to 0.1
CCC(=O)NC(C(=O)N1CCN(C(C)C)CC1)[C@@H](C)c1ccc(NC(=O)[C@@H](NC(=O)c2ccnn2CC)[C@H]2CC[C@H](C)CC2)c(F)c1 (single isomer, unassigned) [Compound 368]	0.01 to 0.1
CCC(=O)N[C@@H](C(=O)N1CCN(C)CC1)[C@@H](C)c1ccc(NC(=O)C(NC(=O)c2ccnn2CC)C(CC)c2ccc(F)cc2)c(F)c1 (single isomer, unassigned) [Compound 554]	0.1 to 10
CCC(=O)N[C@@H](C(=O)N1CCN(C)CC1)[C@@H](C)c1ccc(NC(=O)C(NC(=O)c2ccnn2CC)C(CC)c2ccc(F)cc2)c(F)c1 (single isomer, unassigned) [Compound 555]	< 0.01
CCC(=O)N[C@@H](C(=O)N1CCN(C)CC1)[C@@H](C)c1ccc(NC(=O)C(NC(=O)c2nonc2CC)C(CC)c2ccc(F)cc2)c(F)c1 (single isomer, unassigned) [Compound 557]	0.1 to 10
CCC(=O)N[C@@H](C(=O)N1CCN(C)CC1)[C@@H](C)c1ccc(NC(=O)C(NC(=O)c2nonc2CC)C(CC)c2ccc(F)cc2)c(F)c1 (single isomer, unassigned) [Compound 558]	< 0.01
CCC(=O)N[C@@H](C(=O)N1CCN(C)CC1)[C@@H](C)c1ccc(NC(=O)C(NC(=O)c2ccnn2CC)C(CC)c2ccc(Cl)cc2)c(F)c1 (single isomer, unassigned) [Compound 562]	0.01 to 0.1
CCC(=O)N[C@@H](C(=O)N1CCN(C)CC1)[C@@H](C)c1ccc(NC(=O)C(NC(=O)c2nonc2CC)C(CC)c2ccc(Cl)cc2)c(F)c1 (single isomer, unassigned) [Compound 565]	< 0.01
CCC(=O)N[C@@H](C(=O)N1CCN(C)CC1)[C@@H](C)c1ccc(NC(=O)C(NC(=O)c2ccnn2CC)C2CCc3cc(F)ccc32)c(F)c1 (single isomer, unassigned) [Compound 568]	< 0.01
CCC(=O)N[C@@H](C(=O)N1CCN(C)CC1)[C@@H](C)c1ccc(NC(=O)C(NC(=O)c2nonc2CC)C2CCc3cc(F)ccc32)c(F)c1 (single isomer, unassigned) [Compound 569]	0.1 to 10
CCC(=O)N[C@@H](C(=O)N1CCN(C)CC1)[C@@H](C)c1ccc(NC(=O)C(NC(=O)c2nonc2CC)C2CCc3cc(F)ccc32)c(F)c1 (single isomer, unassigned) [Compound 570]	< 0.01
CCn1nccc1C(=O)N[C@H](C(=O)Nc1ccc([C@H](C)C(NC(=O)C(C)F)C(=O)N2CCN(C)[C@@H](C)C2)cc1F)[C@H]1CC[C@H](C)CC1 (single isomer, unassigned) [Compound 592]	0.01 to 0.1
CCc1nonc1C(=O)N[C@H](C(=O)Nc1ccc([C@H](C)C(NC(=O)C(C)F)C(=O)N2CCN(C)[C@@H](C)C2)cc1F)[C@H]1CC[C@H](C)CC1 (single isomer, unassigned) [Compound 594]	< 0.01
CCc1nonc1C(=O)N[C@H](C(=O)Nc1ccc([C@H](C)C(NC(=O)C(C)F)C(=O)N2CCN(C)[C@@H](C)C2)cc1F)[C@H]1CC[C@H](C)CC1 (single isomer, unassigned) [Compound 595]	0.01 to 0.1
CCn1nccc1C(=O)N[C@H](C(=O)Nc1ccc([C@H](C)C(NC(=O)C(C)F)C(=O)N2CCN(C)[C@H](C)C2)cc1F)[C@H]1CC[C@H](C)CC1 (single isomer, unassigned) [Compound 596]	0.01 to 0.1
CCc1nonc1C(=O)N[C@H](C(=O)Nc1ccc([C@H](C)C(NC(=O)C(C)F)C(=O)N2CCN(C)[C@H](C)C2)cc1F)[C@H]1CC[C@H](C)CC1 (single isomer, unassigned) [Compound 598]	0.01 to 0.1
CCc1nonc1C(=O)N[C@H](C(=O)Nc1ccc([C@H](C)C(NC(=O)C(C)F)C(=O)N2CCN(C)[C@H](C)C2)cc1F)[C@H]1CC[C@H](C)CC1 (single isomer, unassigned) [Compound 599]	< 0.01
CCc1nonc1C(=O)N[C@H](C(=O)Nc1ccc([C@H](C)C(NC(=O)C(F)C2CC2)C(=O)N2CCN(C)[C@H](C)C2)cc1F)[C@H]1CC[C@H](C)CC1 (single isomer, unassigned) [Compound 600]	< 0.01
CCn1nccc1C(=O)N[C@H](C(=O)Nc1ccc([C@H](C)C(NC(=O)C(F)C2CC2)C(=O)N2CCN(C)[C@H](C)C2)cc1F)[C@H]1CC[C@H](C)CC1 (single isomer, unassigned) [Compound 602]	< 0.01
